Source: US10626112B2, “Heterocyclic sulfonamide derivative and medicine comprising same” (EA PHARMA CO., LTD., priority 2014, dated 2020)

Molecular target: human TRPA1 (Homo sapiens (Human), UniProt O75762)
Assay: Measurement of TRPA1 antagonist activity (1): intracellular calcium increase
Type: cell-based
Details: 293T cells transfected with human TRPA1 expression plasmid; allylisothiocyanate 20 μM stimulation; intracellular calcium fluorescence; read-out: hTRPA1 IC50
Method in brief: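 Calcium-flux readout of TRPA1 block: compound given 10 min before 20 μM (final) allylisothiocyanate, fluorescence tracked 5 min. Cells were 293T transiently expressing human TRPA1, dye-loaded 1 hr in HBSS, 20 mM HEPES, pH 7.2. Inhibition scaled between agonist-only and buffer-only responses; IC50 by sigmoid fitting.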

human TRPA1, sequence (O75762 whole entry): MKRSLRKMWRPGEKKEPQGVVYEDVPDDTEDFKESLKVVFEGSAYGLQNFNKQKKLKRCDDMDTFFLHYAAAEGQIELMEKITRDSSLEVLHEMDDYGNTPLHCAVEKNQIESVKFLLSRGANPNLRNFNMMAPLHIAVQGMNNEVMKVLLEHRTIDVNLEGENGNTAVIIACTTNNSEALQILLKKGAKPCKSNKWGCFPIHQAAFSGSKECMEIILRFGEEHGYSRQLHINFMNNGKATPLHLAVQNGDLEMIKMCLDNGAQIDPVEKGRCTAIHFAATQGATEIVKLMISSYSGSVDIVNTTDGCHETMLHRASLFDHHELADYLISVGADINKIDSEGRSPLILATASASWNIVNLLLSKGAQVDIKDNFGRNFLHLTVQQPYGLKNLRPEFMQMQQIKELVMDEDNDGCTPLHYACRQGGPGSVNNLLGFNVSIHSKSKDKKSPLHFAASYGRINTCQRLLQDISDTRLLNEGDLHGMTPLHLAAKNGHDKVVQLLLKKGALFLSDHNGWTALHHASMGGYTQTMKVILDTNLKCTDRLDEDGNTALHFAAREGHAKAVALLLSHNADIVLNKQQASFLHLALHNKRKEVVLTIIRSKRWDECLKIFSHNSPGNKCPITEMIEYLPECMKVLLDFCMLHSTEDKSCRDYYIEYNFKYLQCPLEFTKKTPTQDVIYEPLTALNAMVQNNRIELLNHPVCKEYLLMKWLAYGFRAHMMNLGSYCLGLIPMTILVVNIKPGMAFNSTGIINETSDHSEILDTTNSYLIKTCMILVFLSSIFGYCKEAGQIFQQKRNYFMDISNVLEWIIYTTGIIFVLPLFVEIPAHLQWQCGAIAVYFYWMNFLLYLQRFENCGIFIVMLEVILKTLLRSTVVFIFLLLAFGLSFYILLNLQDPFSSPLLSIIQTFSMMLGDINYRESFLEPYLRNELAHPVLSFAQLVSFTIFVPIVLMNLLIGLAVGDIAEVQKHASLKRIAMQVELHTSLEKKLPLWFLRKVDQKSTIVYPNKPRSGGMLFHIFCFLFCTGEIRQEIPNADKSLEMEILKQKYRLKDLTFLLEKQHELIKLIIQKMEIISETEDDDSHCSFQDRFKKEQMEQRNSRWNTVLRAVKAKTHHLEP

| Molecule | IC50 [nM] |
| --- | --- |
| O=C(NCc1cc(-c2cnc(C(F)(F)F)cn2)ccn1)[C@@H]1CCCN1S(=O)(=O)c1cc2ccccc2o1 [Example 201, (2S)-1-(benzofuran-2-ylsulfonyl)-N-[[4-[5-(trifluoromethyl)pyrazin-2-yl]-2-pyridyl]methyl]pyrrolidine-2-carboxamide] | 8.6 |
| CN1CCOc2cc(COc3cccc(CNC(=O)[C@@H]4CCCN4S(=O)(=O)c4cc5cc(F)ccc5o4)c3)cnc21 [Example 24, (2S)-1-(5-fluorobenzofuran-2-yl)sulfonyl-N-[[3-[(4-methyl-2,3-diphydropyrido[3,2-b][1,4]oxazin-7-yl)methoxy]-phenyl]methyl]pyrrolidine-2-carboxamide] | 410 |
| O=C(NCc1cc(OC(F)(F)F)ccc1F)[C@@H]1CCCN1S(=O)(=O)c1cc2cc(F)ccc2o1 [Example 71, (2S)-1-(5-fluorobenzofuran-2-yl)sulfonyl-N-[[2-fluoro-5-(trifluoromethoxy)phenyl]methyl]-pyrrolidine-2-carboxamide] | 3.2 |
| CNc1nc(CNC(=O)[C@@H]2CCCN2S(=O)(=O)c2cc3ccccc3o2)cc(-c2ccc(C(F)(F)F)cc2)n1 [Example 326, (2S)-1-(benzofuran-2-ylsulfonyl)-N-[[2-(methylamino)-6-[4-(trifluoromethyl)phenyl]pyrimidin-4-yl]methyl]pyrrolidine-2-carboxamide] | 29 |
| O=C(NCc1cccc(-c2ccc(C(F)(F)F)nc2)c1)[C@@H]1CCCN1S(=O)(=O)c1cc2cc(F)ccc2o1 [Example 88, (2S)-1-(5-fluorobenzofuran-2-yl)sulfonyl-N-[[3-[6-(trifluoromethyl)-3-pyridyl]phenyl]methyl]pyrrolidine-2-carboxamide] | 0.41 |
| O=C(NCc1ccnc(-c2cc(F)c(F)cc2O)c1)[C@@H]1CCCN1S(=O)(=O)c1cc2ccccc2o1 [Example 122, (2S)-1-(benzofuran-2-ylsulfonyl)-N-[[2-(4,5-difluoro-2-hydroxy-phenyl)-4-pyridyl]methyl]pyrrolidine-2-carboxamide] | 170 |
| O=C(NCc1ccnc(-c2ccc(OC(F)(F)F)cc2)c1)[C@@H]1CCCN1S(=O)(=O)c1cc2cc(F)ccc2o1 [Example 129, (2S)-1-(5-fluorobenzofuran-2-yl)sulfonyl-N-[[2-[4-(trifluoromethoxy)phenyl]-4-pyridyl]methyl]pyrrolidine-2-carboxamide] | 0.61 |
| O=C(NCc1cc(-c2ccc(C(F)(F)F)cn2)ccn1)[C@@H]1CCN1S(=O)(=O)c1cc2cc(F)ccc2o1 [Example 230, (2S)-1-(5-fluorobenzofuran-2-yl)sulfonyl-N-[[4-[5-(trifluoromethyl)-2-pyridyl]-2-pyridyl]methyl]azetidine-2-carboxamide] | 4.4 |
| C[C@H](NS(=O)(=O)c1cc2cc(F)ccc2o1)C(=O)NCc1cnnc(-c2ccc(C(F)(F)F)cc2)c1 [Example 249, (2S)-2-[(5-fluorobenzofuran-2-yl)sulfonylamino]-N-[[6-[4-(trifluoromethyl)phenyl]-pyridazin-4-yl]methyl]propanamide] | 170 |
| CC[C@H](NS(=O)(=O)c1cc2cc(F)ccc2o1)C(=O)NCc1cc(-c2ccc(C(F)(F)F)cn2)ccn1 [Example 335, (2S)-2-[(5-fluorobenzofuran-2-yl)sulfonylamino]-N-[[4-[5-(trifluoromethyl)-2-pyridyl]-2-pyridyl]methyl]butaneamide] | 54 |

Further molecules by falling IC50, results first:

| IC50 [nM] | Molecule |
| --- | --- |
| 920 | O=C(NCc1cccc(CNc2ccc(C(F)(F)F)cn2)c1)[C@@H]1CCCN1S(=O)(=O)c1cc2ccccc2o1 [Example 320, (2S)-1-(benzofuran-2-ylsulfonyl)-N-[[3-[[[5-(trifluoromethyl)-2-pyridyl]amino]methyl]phenyl]methyl]pyrrolidine-2-carboxamide] |
| 180 | O=C(NCc1cc(-c2cc(Cl)cs2)ccn1)[C@@H]1CCCN1S(=O)(=O)c1cc2ccccc2o1 [Example 286, (2S)-1-(benzofuran-2-ylsulfonyl)-N-[[4-(4-chloro-2-thienyl)-2-pyridyl]methyl]pyrrolidine-2-carboxamide] |
| 88 | O=C(NCc1ccc(Oc2ccnc(C(F)(F)F)c2)cc1)[C@@H]1CCCN1S(=O)(=O)c1cc2ccccc2o1 [Example 55, (2S)-1-(benzofuran-2-ylsulfonyl)-N-[[4-[[2-(trifluoromethyl)-4-pyridyl]oxy]phenyl]methyl]-pyrrolidine-2-carboxamide] |
| 51 | O=C(NCc1cc(-c2ccc(C(F)(F)F)cn2)ccn1)[C@@H]1C[C@@H](c2ccccc2)CN1S(=O)(=O)c1cc2cc(F)ccc2o1 [Example 260, (2S,4S)-1-(5-fluorobenzofuran-2-yl)sulfonyl-4-phenyl-N-[[4-[5-(trifluoromethyl)-2-pyridyl]-2-pyridyl]methyl]pyrrolidine-2-carboxamide] |
| 28 | O=C(NCc1cccc(OCc2ccc(C(F)(F)F)cn2)c1)[C@@H]1CCCN1S(=O)(=O)c1cc2ccccc2o1 [Example 291, (2S)-1-(benzofuran-2-ylsulfonyl)-N-[[3-[[5-(trifluoromethyl)-2-pyridyl]methoxy]phenyl]methyl]pyrrolidine-2-carboxamide] |
| 27 | O=C(NCc1cccc(Cc2ccccc2)c1)[C@@H]1CCCN1S(=O)(=O)c1cc2cc(F)ccc2o1 [Example 319, (2S)—N-[(3-benzylphenyl)methyl]-1-(5-fluorobenzofuran-2-yl)sulfonyl-pyrrolidine-2-carboxamide] |
| 22 | N#Cc1ccc(-c2ccnc(CNC(=O)[C@@H]3CCCN3S(=O)(=O)c3cc4ccccc4o3)c2)cc1 [Example 281, (2S)-1-(benzofuran-2-ylsulfonyl)-N-[[4-(4-cyanophenyl)-2-pyridyl]methyl]pyrrolidine-2-carboxamide] |
| 16 | O=C(NCc1cc(-c2cnc(C(F)(F)F)nc2)ccn1)[C@@H]1CCCN1S(=O)(=O)c1cc2ccccc2o1 [Example 200, (2S)-1-(benzofuran-2-ylsulfonyl)-N-[[4-[2-(trifluoromethyl)pyrimidin-5-yl]-2-pyridyl]methyl]pyrrolidine-2-carboxamide] |
| 14 | O=C(NCc1cccc(CCc2ccc(C(F)(F)F)cc2)c1)[C@@H]1CCCN1S(=O)(=O)c1cc2ccccc2o1 [Example 318, (2S)-1-(benzofuran-2-ylsulfonyl)-N-[[3-[2-[4-(trifluoromethyl)phenyl]ethyl]phenyl]methyl]pyrrolidine-2-carboxamide] |
| 5.7 | C[C@H](NS(=O)(=O)c1cc2cc(F)ccc2o1)C(=O)NCc1cc(-c2ccc(C(F)(F)F)cc2O)ncn1 [Example 290, (2S)-2-[(5-fluorobenzofuran-2-yl)sulfonylamino]-N-[[6-[2-hydroxy-4-(trifluoromethyl)phenyl]pyrimidin-4-yl]methyl]propanamide] |
| 5.4 | O=C(NCc1cccc(OCc2ccnc(C(F)(F)F)c2)c1)[C@@H]1CCCN1S(=O)(=O)c1cc2ccccc2o1 [Example 7] |
| 3 | N#Cc1ccc(COc2cccc(CNC(=O)[C@@H]3CCCN3S(=O)(=O)c3cc4ccccc4o3)c2)cc1 [Example 1, (2S)-1-(benzofuran-2-ylsulfonyl)-N-[[3-[(4-cyanophenyl)methoxy]phenyl]methyl]pyrrolidine-2-carboxamide] |
| 1.6 | (2S)-1-(benzofuran-2-ylsulfonyl)-N-[[3-[6-(trifluoromethyl)-3-pyridyl]phenyl]methyl]pyrrolidine-2-carboxamide [Example 79] |
